Each compound was assayed against BTK (Homo sapiens (Human), UniProt Q06187) (assay: In vitro BTK kinase assay: BTK-POLYGAT-LS ASSAY). Conditions: not given.
Chain of BTK (Q06187 whole entry): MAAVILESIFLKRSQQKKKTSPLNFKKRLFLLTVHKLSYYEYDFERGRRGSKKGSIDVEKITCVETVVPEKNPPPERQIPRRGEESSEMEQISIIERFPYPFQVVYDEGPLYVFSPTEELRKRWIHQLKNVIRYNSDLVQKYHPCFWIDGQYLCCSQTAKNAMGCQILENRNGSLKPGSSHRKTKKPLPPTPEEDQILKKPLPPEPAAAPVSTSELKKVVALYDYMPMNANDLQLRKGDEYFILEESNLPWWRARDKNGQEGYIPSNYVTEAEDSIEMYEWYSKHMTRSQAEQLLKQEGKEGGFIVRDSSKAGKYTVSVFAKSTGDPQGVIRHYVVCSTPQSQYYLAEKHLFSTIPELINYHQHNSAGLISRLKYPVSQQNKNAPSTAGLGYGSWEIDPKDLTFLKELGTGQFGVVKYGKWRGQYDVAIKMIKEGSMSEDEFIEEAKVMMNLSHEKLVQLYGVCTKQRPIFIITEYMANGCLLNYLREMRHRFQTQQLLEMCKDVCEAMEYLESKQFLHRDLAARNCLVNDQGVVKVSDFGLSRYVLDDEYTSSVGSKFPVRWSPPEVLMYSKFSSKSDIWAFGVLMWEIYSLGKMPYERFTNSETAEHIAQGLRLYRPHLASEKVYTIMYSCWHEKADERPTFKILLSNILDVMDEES
In the case of `O=C(Nc1cccc(C2CCCN(c3ncnc4[nH]ccc34)C2)c1)Nc1cccnc1Cl` (centres unmarked) [compound 202], the IC50 is reported as 1 to 10 µM.
In the case of `O=C(Nc1cccc(C2CCCN(c3ncnc4[nH]ccc34)C2)c1)Nc1c(F)cccc1N1CCCC1=O` (centres unmarked) [Cmpd 51, 1-(3-(1-(7H-pyrrolo[2,3-d]pyrimidin-4-yl)piperidin-3-yl)phenyl)-3-(2-fluoro-6-(2-oxopyrrolidin-1-yl)phenyl)urea], the IC50 is reported as 1 to 10 µM.
`N#Cc1c(N)ncnc1N1CCCC(c2ccc(OC(F)(F)F)c(NC(=O)c3ccccc3Cl)c2)C1` (centres unmarked) [compound 145] showed an IC50 of 0.1 to 0.999 µM.
Work on `O=C(Nc1ccccc1)Nc1cccc(C2CCCN(c3ncnc4[nH]cnc34)C2)c1` (centres unmarked) [Cmpd 103, 1-(3-(1-(9H-Purin-6-yl)piperidin-3-yl)phenyl)-3-phenylurea] yielded an IC50 of 0.1 to 0.999 µM.
`O=C(Nc1cc(C2CCCN(c3ncnc4[nH]ccc34)C2)ccc1OC(F)(F)F)c1ccccc1F` (centres unmarked) [Cmpd 89, N-(5-(1-(7H-pyrrolo[2,3-d]pyrimidin-4-yl)piperidin-3-yl)-2-(trifluoromethoxy)phenyl)-2-fluorobenzamide] was tested, and the IC50 was 1 to 10 µM.
In the case of `O=C(Nc1ccccc1)Nc1nc(C2CCCN(c3ncnc4[nH]ccc34)C2)cs1` (centres unmarked) [compound 116, 1-(4-(1-(7H-pyrrolo[2,3-d]pyrimidin-4-yl)piperidin-3-yl)thiazol-2-yl)-3-phenylurea], the IC50 is reported as 1 to 10 µM.
`O=C(Nc1cccc(C2CCCN(c3ncnc4[nH]ccc34)C2)c1)Nc1ccccc1OC(F)F` (centres unmarked) [compound 191] gave an IC50 of 1 to 10 µM.
With `Cc1ccnc(C)c1NC(=O)Nc1cccc(C2CCCN(c3ncnc4[nH]ccc34)C2)c1` (centres unmarked) [compound 200] the IC50 was 1 to 10 µM.
`O=C(Nc1cccc(C2CCCN(c3ncnc4[nH]ccc34)C2)c1)Nc1ccccc1-n1ccnc1` (centres unmarked) [Cmpd 35, 1-(2-(1H-imidazol-1-yl)phenyl)-3-(3-(1-(7H-pyrrolo[2,3-d]pyrimidin-4-yl)piperidin-3-yl)phenyl)urea] gave an IC50 of 1 to 10 µM.
Compound `O=C(Nc1cccc(C2CCCN(c3ncnc4[nH]ccc34)C2)c1)Nc1ccccc1N1CC[C@@H](F)C1` (some centres unmarked) [compound 162] has an IC50 of 0.1 to 0.999 µM.
`Cc1c(N)ncnc1N1CCCC(c2cccc(NC(=O)Nc3ccccc3)c2)C1` (centres unmarked) [Cmpd 98, 1-(3-(1-(6-Amino-5-methylpyrimidin-4-yl)piperidin-3-yl)phenyl)-3-phenylurea] showed an IC50 of 1 to 10 µM.
In the case of `O=C(Nc1cccc(C2CCCN(c3ncnc4[nH]ccc34)C2)c1)Nc1c(Cl)cccc1C(F)(F)F` (centres unmarked) [compound 161], the IC50 is reported as 0.1 to 0.999 µM.
For `O=C(Nc1cccc(C2CCCN(c3ncnc4[nH]ccc34)C2)c1)Nc1ccccc1N1CCOCC1` (centres unmarked) [compound 165], the IC50 was 0.1 to 0.999 µM.
In the case of `O=C(Nc1cccc(C2CCCN(c3ncnc4[nH]ccc34)C2)c1)N1CCCCC1` (centres unmarked) [Cmpd 53, N-(3-(1-(7H-pyrrolo[2,3-d]pyrimidin-4-yl)piperidin-3-yl)phenyl)piperidine-1-carboxamide], the IC50 is reported as 1 to 10 µM.
Work on `CS(=O)(=O)c1ccccc1NC(=O)Nc1cccc(C2CCCN(c3ncnc4[nH]ccc34)C2)c1` (centres unmarked) [Cmpd 64, 1-(3-(1-(7H-pyrrolo[2,3-d]pyrimidin-4-yl)piperidin-3-yl)phenyl)-3-(2-(methylsulfonyl)phenyl)urea] yielded an IC50 of 1 to 10 µM.
For `O=C(Nc1cccc(C2CCCN(c3ncnc4[nH]ccc34)C2)c1)Nc1c(F)cc(F)cc1N1CCCC1` (centres unmarked) [Cmpd 49, 1-(3-(1-(7H-pyrrolo[2,3-d]pyrimidin-4-yl)piperidin-3-yl)phenyl)-3-(2,4-difluoro-6-(pyrrolidin-1-yl)phenyl)urea], the IC50 was < 0.1 µM.
Compound `O=C1[C@@H](Nc2ccccc2)CCN1[C@@H]1CCCN(c2ncnc3[nH]ccc23)C1` [compound 272] has an IC50 of 1 to 10 µM.
Compound `Nc1ncnc(N2CCC[C@@H](N3CC[C@@H](Nc4cc(Cl)cc(Cl)c4)C3=O)C2)c1Cl` [compound 354] has an IC50 of 0.1 to 0.999 µM.
Compound `CN1CCN(c2ccccc2NC(=O)Nc2cccc(C3CCCN(c4ncnc5[nH]ccc45)C3)c2)CC1` (centres unmarked) [compound 209] has an IC50 of 1 to 10 µM.
Work on `O=C(NCC1COCCO1)Nc1cccc(C2CCCN(c3ncnc4[nH]ccc34)C2)c1` (centres unmarked) [compound 214] yielded an IC50 of 1 to 10 µM.
With `N#CNc1cc(N2CCC[C@@H](N3CCCC(Nc4cc(F)cc(Cl)c4)C3=O)C2)ncn1` (some centres unmarked) [compound 358] the IC50 was 0.1 to 0.999 µM.

Same assay, conditions: read-out: IC50 (10 uM ATP)
With `Nc1ncnc(N2CCC[C@@H](N3CCC[C@@H](Nc4cc(Cl)cc(C(F)(F)F)c4)C3=O)C2)c1F` [compound 311, (3R,3′R)-1′-(6-Amino-5-fluoropyrimidin-4-yl)-3-(3-chloro-5-(trifluoromethyl)phenylamino)-1,3′-bipiperidin-2-one] the IC50 was < 0.1 µM.

Same assay, conditions: read-out: IC50 (10 uM ATP); 10 uM ATP; in vitro Btk kinase assay, Example 41
`COc1c(N)ncnc1N1CCCC(c2cccc(NC(=O)Nc3ccccc3)c2)C1` (centres unmarked) [Cmpd 97, 1-(3-(1-(6-Amino-5-methoxypyrimidin-4-yl)piperidin-3-yl)phenyl)-3-phenylurea] was tested, and the IC50 was > 10 µM.
`CN1CCCCC1CNC(=O)Nc1cccc(C2CCCN(c3ncnc4[nH]ccc34)C2)c1` (centres unmarked) [compound 228] was tested, and the IC50 was > 10 µM.
For `O=c1c(Nc2cccc(Cl)c2)c(Nc2cccc(C3CCCN(c4ncnc5[nH]ccc45)C3)c2)c1=O` (centres unmarked) [Cmpd 71, 3-(3-(1-(7H-pyrrolo[2,3-d]pyrimidin-4-yl)piperidin-3-yl)phenylamino)-4-(3-chlorophenylamino)cyclobut-3-ene-1,2-dione], the IC50 was > 10 µM.
For `CS(=O)(=O)N1CCN(c2ncnc3[nH]ccc23)CC1c1cccc(NC(=O)Nc2ccccc2)c1` (centres unmarked) [compound 128, 1-(3-(1-(methylsulfonyl)-4-(7H-pyrrolo[2,3-d]pyrimidin-4-yl)piperazin-2-yl)phenyl)-3-phenylurea], the IC50 was > 10 µM.
For `O=c1c(Nc2ccccc2)c(Nc2cccc(C3CCCN(c4ncnc5[nH]ccc45)C3)c2)c1=O` (centres unmarked) [Cmpd 69, 3-(3-(1-(7H-pyrrolo[2,3-d]pyrimidin-4-yl)piperidin-3-yl)phenylamino)-4-(phenylamino)cyclobut-3-ene-1,2-dione], the IC50 was > 10 µM.
With `O=C(NCC1CCNC1)Nc1cccc(C2CCCN(c3ncnc4[nH]ccc34)C2)c1` (centres unmarked) [compound 233] the IC50 was > 10 µM.
In the case of `O=c1c(Nc2ccc(Cl)cc2)c(Nc2cccc(C3CCCN(c4ncnc5[nH]ccc45)C3)c2)c1=O` (centres unmarked) [Cmpd 70, 3-(3-(1-(7H-pyrrolo[2,3-d]pyrimidin-4-yl)piperidin-3-yl)phenylamino)-4-(4-chlorophenylamino)cyclobut-3-ene-1,2-dione], the IC50 is reported as > 10 µM.
`Cc1cc(NC(=O)Nc2cccc(C3CCCN(c4ncnc5[nH]ccc45)C3)c2)n(-c2ccccc2)n1` (centres unmarked) [compound 227] was tested, and the IC50 was > 10 µM.
For `O=C(Nc1csc(C2CCCN(c3ncnc4[nH]ncc34)C2)n1)Nc1ccccc1N1CCCC1` (centres unmarked) [compound 110, 1-(2-(1-(1H-pyrazolo[3,4-d]pyrimidin-4-yl)piperidin-3-yl)thiazol-4-yl)-3-(2-(pyrrolidin-1-yl)phenyl)urea], the IC50 was < 0.1 µM.
For `O=C(Nc1ccccc1)Nc1cnc(C2CCCN(c3ncnc4[nH]ccc34)C2)s1` (centres unmarked) [compound 117, 1-(2-(1-(7H-pyrrolo[2,3-d]pyrimidin-4-yl)piperidin-3-yl)thiazol-5-yl)-3-phenylurea], the IC50 was > 10 µM.
In the case of `CC(=O)N1CCC(CNC(=O)Nc2cccc(C3CCCN(c4ncnc5[nH]ccc45)C3)c2)CC1` (centres unmarked) [compound 246], the IC50 is reported as > 10 µM.
For `C[C@H](NC(=O)Nc1cccc(C2CCCN(c3ncnc4[nH]ccc34)C2)c1)C1CCCCC1` (some centres unmarked) [compound 242], the IC50 was > 10 µM.
With `CC(C)NC(=O)Nc1cccc(C2CCCN(c3ncnc4[nH]ccc34)C2)c1` (centres unmarked) [compound 241] the IC50 was > 10 µM.
For `O=C(Nc1ccccc1)Nc1cc(C2CCCN(c3ncnc4[nH]ccc34)C2)ccc1OC(F)(F)F` (centres unmarked) [compound 267], the IC50 was > 10 µM.
With `CC(=O)N1CCN(c2ncnc3[nH]ccc23)CC1c1cccc(NC(=O)Nc2ccccc2)c1` (centres unmarked) [compound 127, 1-(3-(1-acetyl-4-(7H-pyrrolo[2,3-d]pyrimidin-4-yl)piperazin-2-yl)phenyl)-3-phenylurea] the IC50 was > 10 µM.
`Cc1ccc(C2CCCN(c3ncnc4[nH]ccc34)C2)cc1NC(=O)Nc1ccccc1` (centres unmarked) [Cmpd 81, 1-(5-(1-(7H-pyrrolo[2,3-d]pyrimidin-4-yl)piperidin-3-yl)-2-methylphenyl)-3-phenylurea] was tested, and the IC50 was > 10 µM.
`COc1ccc(C2CCCN(c3ncnc4[nH]ccc34)C2)cc1NC(=O)Nc1ccccc1` (centres unmarked) [compound 266] was tested, and the IC50 was > 10 µM.
For `Nc1ncnc(N2CC[C@H](F)[C@H](N3CCC[C@H](Nc4cc(F)cc(Cl)c4)C3=O)C2)c1F` [compound 343, (3S,3′R,4′S)-1′-(6-amino-5-fluoropyrimidin-4-yl)-3-(3-chloro-5-fluorophenylamino)-4′-fluoro-1,3′-bipiperidin-2-one], the IC50 was > 10 µM.
For `O=c1nc(Nc2cccc(C3CCCN(c4ncnc5[nH]ccc45)C3)c2)[nH]c2ccccc12` (centres unmarked) [compound 119, 2-(3-(1-(7H-pyrrolo[2,3-d]pyrimidin-4-yl)piperidin-3-yl)phenylamino)quinazolin-4(1H)-one], the IC50 was > 10 µM.
For `O=C(Nc1cccc(C2CCCN(c3ncnc4[nH]ccc34)C2)c1)Nc1cnccc1N1CCCC1` (centres unmarked) [compound 224], the IC50 was > 10 µM.
For `Nc1ncnc(N2CC[C@H](O)[C@@H](N3CCCC(Nc4cc(F)cc(Cl)c4)C3=O)C2)c1F` (stereo partly drawn) [compound 324, trans-1′-(6-Amino-5-fluoropyrimidin-4-yl)-3-(3-chloro-5-fluorophenylamino)-4′-hydroxy-1,3′-bipiperidin-2-one], the IC50 was < 0.1 µM.
With `N#Cc1cnc2[nH]ccc2c1N1CCC[C@@H](N2CCCC(Nc3cc(F)cc(Cl)c3)C2=O)C1` (stereo partly drawn) [compound 285, 4-((3′R)-3-(3-Chloro-5-fluorophenylamino)-2-oxo-1,3′-bipiperidin-1′-yl)-1H-pyrrolo[2,3-b]pyridine-5-carbonitrile] the IC50 was < 0.1 µM.
`O=C(Nc1cccc(C2CCCN(c3ncnc4[nH]ccc34)C2)c1)c1cccnc1` (centres unmarked) [compound 12, N-(3-(1-(7H-pyrrolo[2,3-d]pyrimidin-4-yl)piperidin-3-yl)phenyl)nicotinamide] was tested, and the IC50 was > 10 µM.
`O=C(Nc1cccc(C2CCCN(c3ncnc4[nH]ccc34)C2)c1)c1c(Cl)cccc1Cl` (centres unmarked) [Cmpd 10, N-(3-(1-(7H-pyrrolo[2,3-d]pyrimidin-4-yl)piperidin-3-yl)phenyl)-2,6-dichlorobenzamide] was tested, and the IC50 was > 10 µM.
`O=C(Nc1cccc(C2CN(c3ncnc4[nH]ccc34)CCN2CCO)c1)Nc1c(F)cccc1N1CCCC1` (centres unmarked) [compound 135, 1-(2-Fluoro-6-(pyrrolidin-1-yl)phenyl)-3-(3-(1-(2-hydroxyethyl)-4-(7H-pyrrolo[2,3-d]pyrimidin-4-yl)piperazin-2-yl)phenyl)urea] was tested, and the IC50 was < 0.1 µM.

Reference: US9790229B2, “Bruton's tyrosine kinase inhibitors” (priority 2009, dated 2017)
